Measurements published in patent US10899709B2, “Novel-alkynyl-substituted 3-phenylpyrrolidine-2,4-diones and use thereof as herbicides” (BAYER CROPSCIENCE AKTIENGESELLSCHAFT, priority 2015, dated 2021).

Assays:
Format in all cases: in vivo
Setaria viridis [1] = experiment: Post-emergence herbicidal effect; details: visual assessment after about 3 weeks
Description: (§1) Seeds of monocotyledonous and dicotyledonous weed and crop plants are laid out in sandy loam in wood-fibre pots, covered with soil and cultivated in a greenhouse under good growth conditions. 2 to 3 weeks after sowing, the test plants are treated at the one-leaf stage. The compounds according to the invention, formulated in the form of wettable powders (WP) or as emulsion concentrates (EC), are then sprayed as aqueous suspension or emulsion at a water application rate of 600 to 800 l/ha (converted) with the addition of 0.2% of wetting agent onto the green parts of the plants. After the test plants have been left to stand in the greenhouse under optimal growth conditions for about 3 weeks, the action of the preparations is assessed visually in comparison to untreated controls (herbicidal action in percent (%): 100% activity=the plants have died, 0% activity=like control plants).

Echinochloa crus-galli [2] = experiment: Post-emergence herbicidal effect; details: visual assessment after about 3 weeks
Description: as §1

Alopecurus myosuroides [3] = experiment: Post-emergence herbicidal effect; details: 80 g/ha, visual assessment after about 3 weeks
Description: as §1

Lolium multiflorum [4] = experiment: Post-emergence herbicidal effect; details: visual assessment after about 3 weeks
Description: as §1

Avena fatua = experiment: Pre-emergence herbicidal effect; details: visual score after 3 weeks
Text: (§2) Seeds of monocotyledonous and dicotyledonous weed plants and crop plants are laid out in wood-fibre pots in sandy loam and covered with soil. The compounds according to the invention formulated in the form of wettable powders (WP) or as emulsion concentrates (EC) are then applied as aqueous suspension or emulsion at a water application rate of 600 to 800 l/ha (converted) with the addition of 0.2% wetting agent to the surface of the covering soil. After the treatment, the pots are placed in a greenhouse and kept under good growth conditions for the trial plants. The damage to the test plants is scored visually after a test period of 3 weeks by comparison with untreated controls (herbicidal activity in percent (%): 100% activity=the plants have died, 0% activity=like control plants).

Setaria viridis [5] = experiment: Pre-emergence herbicidal effect; details: visual score after 3 weeks
Text: as §2

Echinochloa crus-galli [6] = experiment: Pre-emergence herbicidal effect; details: visual score after 3 weeks
Text: as §2

Alopecurus myosuroides [7] = experiment: Pre-emergence herbicidal effect; details: visual score after 3 weeks
Text: as §2

Lolium multiflorum [8] = experiment: Pre-emergence herbicidal effect; details: visual score after 3 weeks
Text: as §2

CCc1cc(C#CC2CC2)cc(C)c1C1=C(OC(=O)C(C)C)C2(CCC(COC)C2)NC1=O (stereo not drawn) [Example Ia-11]
Post-emergence effectiveness SETVI (Setaria viridis [1]; 20 g/ha): 80%
Post-emergence effectiveness SETVI (Setaria viridis [1]; 80 g/ha): 90%
Post-emergence effectiveness ECHCG (Echinochloa crus-galli [2]; 20 g/ha): 100%
Post-emergence effectiveness ECHCG (Echinochloa crus-galli [2]; 80 g/ha): 100%
Post-emergence effectiveness ALOMY (Alopecurus myosuroides [3]): 90%
Post-emergence effectiveness LOLMU (Lolium multiflorum [4]; 80 g/ha): 90%
Pre-emergence effectiveness AVEFA (Avena fatua; 320 g/ha): 80%
Pre-emergence effectiveness SETVI (Setaria viridis [5]; 80 g/ha): 100%
Pre-emergence effectiveness SETVI (Setaria viridis [5]; 320 g/ha): 100%
Pre-emergence effectiveness ECHCG (Echinochloa crus-galli [6]; 80 g/ha): 100%
Pre-emergence effectiveness ECHCG (Echinochloa crus-galli [6]; 320 g/ha): 100%
Pre-emergence effectiveness ALOMY (Alopecurus myosuroides [7]; 80 g/ha): 100%
Pre-emergence effectiveness ALOMY (Alopecurus myosuroides [7]; 320 g/ha): 100%
Pre-emergence effectiveness LOLMU (Lolium multiflorum [8]; 80 g/ha): 100%
Pre-emergence effectiveness LOLMU (Lolium multiflorum [8]; 320 g/ha): 100%

CC#Cc1cc(C)c(C2=C(OS(C)(=O)=O)C3(CCC(COC)C3)NC2=O)c(CC)c1 (stereo not drawn) [Example Ia-16]
Pre-emergence effectiveness SETVI (Setaria viridis [5]; 80 g/ha): 90%
Pre-emergence effectiveness SETVI (Setaria viridis [5]; 320 g/ha): 90%
Pre-emergence effectiveness ECHCG (Echinochloa crus-galli [6]; 80 g/ha): 90%
Pre-emergence effectiveness ECHCG (Echinochloa crus-galli [6]; 320 g/ha): 100%
Pre-emergence effectiveness ALOMY (Alopecurus myosuroides [7]; 80 g/ha): 90%
Pre-emergence effectiveness ALOMY (Alopecurus myosuroides [7]; 320 g/ha): 90%
Pre-emergence effectiveness LOLMU (Lolium multiflorum [8]; 320 g/ha): 90%

CC#Cc1cc(C)c(C2=C(OC(=O)C(C)C)C3(CCC(COC)C3)NC2=O)c(CC)c1 (stereo not drawn) [Example Ia-7]
Post-emergence effectiveness SETVI (Setaria viridis [1]; 80 g/ha): 80%
Post-emergence effectiveness ECHCG (Echinochloa crus-galli [2]; 20 g/ha): 90%
Post-emergence effectiveness ECHCG (Echinochloa crus-galli [2]; 80 g/ha): 100%
Post-emergence effectiveness ALOMY (Alopecurus myosuroides [3]): 100%
Post-emergence effectiveness LOLMU (Lolium multiflorum [4]; 80 g/ha): 100%
Pre-emergence effectiveness SETVI (Setaria viridis [5]; 80 g/ha): 100%
Pre-emergence effectiveness ECHCG (Echinochloa crus-galli [6]; 80 g/ha): 100%
Pre-emergence effectiveness ALOMY (Alopecurus myosuroides [7]; 80 g/ha): 100%
Pre-emergence effectiveness LOLMU (Lolium multiflorum [8]; 80 g/ha): 100%

CC#Cc1cc(CC)c(C2=C(OC(=O)C(C)C)C3(CCC(OCCOC)CC3)NC2=O)c(CC)c1 (stereo not drawn) [Example Ia-13]
Post-emergence effectiveness SETVI (Setaria viridis [1]; 80 g/ha): 80%
Post-emergence effectiveness ECHCG (Echinochloa crus-galli [2]; 20 g/ha): 80%
Post-emergence effectiveness ECHCG (Echinochloa crus-galli [2]; 80 g/ha): 100%
Pre-emergence effectiveness AVEFA (Avena fatua; 80 g/ha): 80%
Pre-emergence effectiveness AVEFA (Avena fatua; 320 g/ha): 100%
Pre-emergence effectiveness SETVI (Setaria viridis [5]; 80 g/ha): 100%
Pre-emergence effectiveness SETVI (Setaria viridis [5]; 320 g/ha): 100%
Pre-emergence effectiveness ECHCG (Echinochloa crus-galli [6]; 80 g/ha): 100%
Pre-emergence effectiveness ECHCG (Echinochloa crus-galli [6]; 320 g/ha): 100%
Pre-emergence effectiveness ALOMY (Alopecurus myosuroides [7]; 80 g/ha): 100%
Pre-emergence effectiveness ALOMY (Alopecurus myosuroides [7]; 320 g/ha): 100%
Pre-emergence effectiveness LOLMU (Lolium multiflorum [8]; 80 g/ha): 100%
Pre-emergence effectiveness LOLMU (Lolium multiflorum [8]; 320 g/ha): 100%

CC#Cc1cc(C)c(C2=C(OC(=O)C(C)C)C3(CCC(COC)C3)NC2=O)c(CC)c1 (stereo not drawn) [Example Ia-6]
Post-emergence effectiveness SETVI (Setaria viridis [1]; 80 g/ha): 100%
Post-emergence effectiveness ECHCG (Echinochloa crus-galli [2]; 20 g/ha): 100%
Post-emergence effectiveness ECHCG (Echinochloa crus-galli [2]; 80 g/ha): 100%
Post-emergence effectiveness ALOMY (Alopecurus myosuroides [3]): 100%
Post-emergence effectiveness LOLMU (Lolium multiflorum [4]; 20 g/ha): 90%
Post-emergence effectiveness LOLMU (Lolium multiflorum [4]; 80 g/ha): 90%
Pre-emergence effectiveness AVEFA (Avena fatua; 80 g/ha): 90%
Pre-emergence effectiveness AVEFA (Avena fatua; 320 g/ha): 90%
Pre-emergence effectiveness SETVI (Setaria viridis [5]; 80 g/ha): 100%
Pre-emergence effectiveness SETVI (Setaria viridis [5]; 320 g/ha): 100%
Pre-emergence effectiveness ECHCG (Echinochloa crus-galli [6]; 80 g/ha): 100%
Pre-emergence effectiveness ECHCG (Echinochloa crus-galli [6]; 320 g/ha): 100%
Pre-emergence effectiveness ALOMY (Alopecurus myosuroides [7]; 80 g/ha): 100%
Pre-emergence effectiveness ALOMY (Alopecurus myosuroides [7]; 320 g/ha): 100%
Pre-emergence effectiveness LOLMU (Lolium multiflorum [8]; 80 g/ha): 100%
Pre-emergence effectiveness LOLMU (Lolium multiflorum [8]; 320 g/ha): 100%

COCC1CCC2(C1)NC(=O)C(c1c(C)cc(C#CC3CC3)cc1C)=C2O (stereo not drawn) [Example I-13]
Post-emergence effectiveness SETVI (Setaria viridis [1]; 20 g/ha): 90%
Post-emergence effectiveness SETVI (Setaria viridis [1]; 80 g/ha): 90%
Post-emergence effectiveness ECHCG (Echinochloa crus-galli [2]; 20 g/ha): 90%
Post-emergence effectiveness ECHCG (Echinochloa crus-galli [2]; 80 g/ha): 90%
Post-emergence effectiveness ALOMY (Alopecurus myosuroides [3]): 80%
Post-emergence effectiveness LOLMU (Lolium multiflorum [4]; 80 g/ha): 90%
Pre-emergence effectiveness SETVI (Setaria viridis [5]; 80 g/ha): 90%
Pre-emergence effectiveness SETVI (Setaria viridis [5]; 320 g/ha): 100%
Pre-emergence effectiveness ECHCG (Echinochloa crus-galli [6]; 80 g/ha): 100%
Pre-emergence effectiveness ECHCG (Echinochloa crus-galli [6]; 320 g/ha): 100%
Pre-emergence effectiveness ALOMY (Alopecurus myosuroides [7]; 320 g/ha): 100%
Pre-emergence effectiveness LOLMU (Lolium multiflorum [8]; 320 g/ha): 90%
